Where only a bound is given, the exact number is not on record here.

The first experiment concerns Aβ1-42 production. In words: Cellular assay for inhibition of Aβ1-42 production (H4 APP751 SWE clone 8.20). Type of experiment: cell-based. Conditions: 19 h, H4 APP751 SWE clone 8.20 cells, 19 h incubation; class symbols; read-out: Activity Rating (Aβ42 cellular IC50). The method in brief:
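Inhibition values are IC50s fitted to Viewlux counts after a 19 h compound exposure at 37 °C. Aβ42 was captured by the neoepitope-specific antibody 565 (0.8 ng/well) paired with N-terminal 26D6 (75 ng/well), incubated overnight at 4 °C in pH 7.4 Tris-HCl buffer containing 0.2% BSA.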
Turning to `CNc1nc(Nc2ccc(C#N)c3ccccc23)nc2c1CCC2c1ccccc1` (centres unmarked) [Example 229, 4-(4-(methylamino)-7-phenyl-6,7-dihydro-5H-cyclopenta[d]pyrimidin-2-ylamino)-1-naphthonitrile], the IC50 (as a rule, the concentration that inhibits the measured activity by half) is > 1000 nM.

Consider `CNc1nc(Nc2ccc(-n3cnc(C)n3)c(OC)c2)nc2c1COCC2c1ccc(Cl)cc1` (centres unmarked) [Example 71, 8-(4-chlorophenyl)-N^2-(3-methoxy-4-(3-methyl-1H-1,2,4-triazol-1-yl)phenyl)-N^4-methyl-7,8-dihydro-5H-pyrano[4,3-d]pyrimidine-2,4-diamine], for which the IC50 was 10 to 100 nM.

With `COc1cc(Nc2nc3c(c(N4CC(F)(F)C4)n2)CN(C)CC3c2ccc(F)cc2)ccc1-n1cnc(Cl)c1` (centres unmarked) [Example 159, N-(4-(4-chloro-1H-imidazol-1-yl)-3-methoxyphenyl)-4-(3,3-difluoroazetidin-1-yl)-8-(4-fluorophenyl)-6-methyl-5,6,7,8-tetrahydropyrido[4,3-d]pyrimidin-2-amine], the IC50 fell in the range of 10 to 100 nM.

`CNc1nc(Nc2ccc(-n3cnc(Cl)c3)c(OC)c2)nc2c1COCC2c1ccc(OC(F)(F)F)cc1` (centres unmarked) [Example 122A, N2-(4-(4-chloro-1H-imidazol-1-yl)-3-methoxyphenyl)-N4-methyl-8-(4-(trifluoromethoxy)phenyl)-7,8-dihydro-5H-pyrano[4,3-d]pyrimidine-2,4-diamine]: the IC50 was in the range of 1.5 to 9.9 nM.

As to `CNc1nc(Nc2ccc(-n3cnc(C)n3)c(OC)c2)nc2c1CC[C@H]2c1ccccc1Cl` (single isomer, unassigned) [Example 268A], the IC50 was in the range of 1.5 to 9.9 nM.

On to `COc1cc(Nc2nc3c(c(N4CC(N(C)C)C4)n2)CCC3c2ccc(F)cc2)ccc1-n1cnc(Cl)c1` (centres unmarked) [Example 34, N-(4-(4-chloro-1H-imidazol-1-yl)-3-methoxyphenyl)-4-(3-(dimethylamino)azetidin-1-yl)-7-(4-fluorophenyl)-6,7-dihydro-5H-cyclopenta[d]pyrimidin-2-amine], for which the IC50 is 10 to 100 nM.

As to `CNc1nc(Nc2ccc(-c3ccncc3)c(OC)c2)nc2c1CCC2c1ccccc1` (centres unmarked) [Example 262, N2-(3-methoxy-4-(pyridin-4-yl)phenyl)-N4-methyl-7-phenyl-6,7-dihydro-5H-cyclopenta[d]pyrimidine-2,4-diamine], the IC50 lay within 1.5 to 9.9 nM.

In the case of `CNc1nc(Nc2ccnc(C)c2)nc2c1CCC2c1ccccc1` (centres unmarked) [Example 216, N4-methyl-N2-(2-methylpyridin-4-yl)-7-phenyl-6,7-dihydro-5H-cyclopenta[d]pyrimidine-2,4-diamine], the IC50 is > 1000 nM.

On to `COc1cc(Nc2nc3c(c(N(C)C)n2)COCC3c2ccc(F)cc2)ccc1-n1cnc(Cl)c1` (racemic) [Example 61, N2-(4-(4-chloro-1H-imidazol-1-yl)-3-methoxyphenyl)-8-(4-fluorophenyl)-N4,N4-dimethyl-7,8-dihydro-5H-pyrano[4,3-d]pyrimidine-2,4-diamine], for which the IC50 was in the range of 10 to 100 nM.

In the case of `CNc1nc(Nc2ccc(-n3cnc(C)n3)c(OC)c2)nc2c1CC[C@H]2c1ccc(Cl)cc1F` (single isomer, unassigned) [Example 271A], the IC50 is 1.5 to 9.9 nM.

For the molecule `CNc1nc(Nc2ccc(C3CC3)cc2)nc2c1CCC2c1ccc(F)cc1` (centres unmarked) [Example 258, N2-(4-cyclopropylphenyl)-7-(4-fluorophenyl)-N4-methyl-6,7-dihydro-5H-cyclopenta[d]pyrimidine-2,4-diamine], the IC50 was > 1000 nM.

Still in this experiment, the particulars now being: 19 h, H4 APP751 SWE clone 8.20 cells, 19 h incubation; read-out: Activity Rating (Aβ42 cellular IC50), numeric value.
Take `COc1cc(Nc2nc3c(c(N4CC[C@@H](F)C4)n2)CCN(S(C)(=O)=O)C3c2ccc(F)cc2)ccc1-n1cnc(Cl)c1` (some centres unmarked) [Example 173]: the IC50 was found to be 490 nM.

Regarding `CCN(C)c1nc(Nc2ccc(-n3cnc(Cl)c3)c(OC)c2)nc2c1COCC2c1ccc(F)cc1` (centres unmarked) [Example 62B, N2-(4-(4-chloro-1H-imidazol-1-yl)-3-methoxyphenyl)-N4-ethyl-8-(4-fluorophenyl)-N4-methyl-7,8-dihydro-5H-pyrano[4,3-d]pyrimidine-2,4-diamine], the IC50 turned out to be 86 nM.

As to `CNc1nc(Nc2ccc(C#N)cc2)nc2c1CCC2c1ccccc1` (centres unmarked) [Example 225, 4-(4-(methylamino)-7-phenyl-6,7-dihydro-5H-cyclopenta[d]pyrimidin-2-ylamino)benzonitrile], the IC50 turned out to be 18 nM.

As to `Cc1ccc(C(C)C)cc1Nc1nc(Nc2ccc(C#N)cc2)nc2c1CCC2c1ccccc1` (centres unmarked) [Example 215B, 4-(4-(5-isopropyl-2-methylphenylamino)-7-phenyl-6,7-dihydro-5H-cyclopenta[d]pyrimidin-2-ylamino)benzonitrile], the IC50 was 173 nM.

Consider `COc1ccc(CN2CCc3c(nc(Nc4ccc(-n5cnc(Cl)c5)c(OC)c4)nc3N3CC[C@H](F)C3)C2c2ccc(F)cc2)cc1` (stereo partly drawn) [Example 167A, N-(4-(4-chloro-1H-imidazol-1-yl)-3-methoxyphenyl)-8-(4-fluorophenyl)-4-((S)-3-fluoropyrrolidin-1-yl)-7-(4-methoxybenzyl)-5,6,7,8-tetrahydropyrido[3,4-d]pyrimidin-2-amine], for which the IC50 was determined as 26 nM.

Staying with this experiment, now noted: H4 APP751 SWE clone 8.20 cells, 19 h incubation; class symbols; read-out: Activity Rating (Aβ42 cellular IC50).
For `CCNc1nc(Nc2ccc(-n3ncnc3C)c(F)c2)nc2c1CN(S(C)(=O)=O)CC2c1ccccc1` (centres unmarked) [Example 140, N4-ethyl-N2-(3-fluoro-4-(5-methyl-1H-1,2,4-triazol-1-yl)phenyl)-6-(methylsulfonyl)-8-phenyl-5,6,7,8-tetrahydropyrido[4,3-d]pyrimidine-2,4-diamine], the IC50 fell in the range of 10 to 100 nM.

Turning to `CCNc1nc(Nc2ccc(-n3cnc(Cl)c3)c(OC)c2)nc2c1CCN(CC)C2c1ccc(F)cc1` (centres unmarked) [Example 169, N2-(4-(4-chloro-1H-imidazol-1-yl)-3-methoxyphenyl)-N4,7-diethyl-8-(4-fluorophenyl)-5,6,7,8-tetrahydropyrido[3,4-d]pyrimidine-2,4-diamine], the IC50 was in the range of 10 to 100 nM.

`COCC(Nc1nc(Nc2ccc(-n3cnc(Cl)c3)c(OC)c2)nc2c1CCC2c1ccc(F)cc1)C1CC1` (single isomer, unassigned) [Example 45C, N2-(4-(4-chloro-1H-imidazol-1-yl)-3-methoxyphenyl)-N4-(1-cyclopropyl-2-methoxyethyl)-7-(4-fluorophenyl)-6,7-dihydro-5H-cyclopenta[d]pyrimidine-2,4-diamine]: the IC50 lay within 10 to 100 nM.

In the case of `CCNc1nc(Nc2ccc(-n3cnc(Cl)c3)c(OC)c2)nc2c1CN(C(=O)COC)CC2c1ccccc1` (centres unmarked) [Example 133A, 1-(2-(4-(4-chloro-1H-imidazol-1-yl)-3-methoxyphenylamino)-4-(ethylamino)-8-phenyl-7,8-dihydropyrido[4,3-d]pyrimidin-6(5H)-yl)-2-methoxyethanone], the IC50 lay in the range of 1.5 to 9.9 nM.

Regarding `COc1cc(Nc2nc3c(c(N4CC[C@@H](F)C4)n2)CCC3c2ccc(F)cc2)ccc1-n1cnc(Cl)c1` (stereo partly drawn) [Example 38B, N-(4-(4-chloro-1H-imidazol-1-yl)-3-methoxyphenyl)-7-(4-fluorophenyl)-4-((R)-3-fluoropyrrolidin-1-yl)-6,7-dihydro-5H-cyclopenta[d]pyrimidin-2-amine], the IC50 lay in the range of 10 to 100 nM.

In the case of `COc1cc(Nc2nc3c(c(N(C)C)n2)CCC3c2ccccc2)ccc1-n1cnc(Cl)c1` (single isomer, unassigned) [Example 4A, N^2-(4-(4-chloro-1H-imidazol-1-yl)-3-methoxyphenyl)-N^4,N^4-dimethyl-7-phenyl-6,7-dihydro-5H-cyclopenta[d]pyrimidine-2,4-diamine], the IC50 is 1.5 to 9.9 nM.

For `COc1cc(Nc2nc(N[C@H](C)C3CC3)c3c(n2)C(c2ccc(F)cc2)CC3)ccc1-n1cnc(Cl)c1` (single isomer, unassigned) [Example 49A], the IC50 fell in the range of 1.5 to 9.9 nM.

For `CCNc1nc(Nc2ccc(-n3cnc(Cl)c3)c(OC)c2)nc2c1CCC2c1ccc(OC(F)(F)F)cc1` (single isomer, unassigned) [Example 98B, N^2-(4-(4-Chloro-1H-imidazol-1-yl)-3-methoxyphenyl)-N^4-ethyl-7-(4-(trifluoromethoxy)phenyl)-6,7-dihydro-5H-cyclopenta[d]pyrimidine-2,4-diamine], the IC50 was in the range of 10 to 100 nM.

As for `CNc1nc(Nc2ccc(-n3cnc(Cl)c3)c(OC)c2)nc2c1COCC2c1ccc(C(F)(F)F)cc1` (centres unmarked) [Example 120A, N2-(4-(4-chloro-1H-imidazol-1-yl)-3-methoxyphenyl)-N4-methyl-8-(4-(trifluoromethyl)phenyl)-7,8-dihydro-5H-pyrano[4,3-d]pyrimidine-2,4-diamine], the IC50 fell in the range of 1.5 to 9.9 nM.

Regarding `COc1cc(Nc2nc3c(c(N4CC(Cl)C4)n2)CCC3c2ccccc2)ccc1-n1cnc(Cl)c1` (centres unmarked) [Example 181, N-(4-(4-chloro-1H-imidazol-1-yl)-3-methoxyphenyl)-4-(3-chloroazetidin-1-yl)-7-phenyl-6,7-dihydro-5H-cyclopenta[d]pyrimidin-2-amine], the IC50 was in the range of 10 to 100 nM.

With `CNc1nc(Nc2ccc(-n3ncnc3C)c(OC)c2)nc2c1CN(C)CC2c1ccc(F)cc1` (centres unmarked) [Example 199B, 8-(4-fluorophenyl)-N2-(3-methoxy-4-(5-methyl-1H-1,2,4-triazol-1-yl)phenyl)-N4,6-dimethyl-5,6,7,8-tetrahydropyrido[4,3-d]pyrimidine-2,4-diamine], the IC50 was 1.5 to 9.9 nM.

`COCC(Nc1nc(Nc2ccc(-n3cnc(Cl)c3)c(OC)c2)nc2c1CCC2c1ccc(F)cc1)C1CC1` (single isomer, unassigned) [Example 45A, N2-(4-(4-chloro-1H-imidazol-1-yl)-3-methoxyphenyl)-N4-(1-cyclopropyl-2-methoxyethyl)-7-(4-fluorophenyl)-6,7-dihydro-5H-cyclopenta[d]pyrimidine-2,4-diamine]: the IC50 lay in the range of 10 to 100 nM.

Still in this experiment, the particulars now being: H4 APP751 SWE clone 8.20 cells, 19 h incubation; read-out: Activity Rating (Aβ42 cellular IC50), numeric value.
`COc1cc(Nc2nc3c(c(N4CC(C)(OC)C4)n2)CCC3c2ccc(F)cc2)ccc1-n1cnc(C)n1` (centres unmarked) [Example 192B, 7-(4-fluorophenyl)-4-(3-methoxy-3-methylazetidin-1-yl)-N-(3-methoxy-4-(3-methyl-1H-1,2,4-triazol-1-yl)phenyl)-6,7-dihydro-5H-cyclopenta[d]pyrimidin-2-amine]: the IC50 is 16 nM.

The record behind these values is patent US8637525B2, “Compounds for the reduction of beta-amyloid production” (Bristol-Myers Squibb Company, priority 2009, dated 2014).
